14 molecules from BindingDB's records for doi:10.1021/jm031026e (Universit&#224, 2004) can be followed below.

In this assay the target is Sigma non-opioid intracellular receptor 1 (Cavia porcellus) (UniProt Q60492). The assay can be described thus: In vitro binding affinity at opioid sigma-1 receptor in guinea pig brain membranes by (+)-[3H]pentazocine displacement.

Structures are written as SMILES.

Sigma non-opioid intracellular receptor 1 (Cavia porcellus), sequence (Q60492 whole entry, looked up): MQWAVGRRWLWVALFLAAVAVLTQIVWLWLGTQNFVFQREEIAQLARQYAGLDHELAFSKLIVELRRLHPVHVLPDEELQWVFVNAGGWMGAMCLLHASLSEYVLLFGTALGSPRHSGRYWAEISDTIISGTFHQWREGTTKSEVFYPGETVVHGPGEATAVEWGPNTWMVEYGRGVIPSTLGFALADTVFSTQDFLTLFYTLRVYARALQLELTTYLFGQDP

`c1ccc2c(CCCN3CCN(C4CCCCC4)CC3)cccc2c1` [1-Cyclohexyl-4-(3-naphthalen-1-yl-propyl)-piperazine] came in with a Ki of 2.16 nM.

Molecule `c1ccc2c(CCCCN3CCN(C4CCCCC4)CC3)cccc2c1` [1-Cyclohexyl-4-(4-naphthalen-1-yl-butyl)-piperazine] displayed a Ki of 0.22 nM.

As to `COc1cccc2c1CCCC2N1CCN(C2CCCCC2)CC1` (centres undefined) [1-Cyclohexyl-4-(5-methoxy-1,2,3,4-tetrahydro-naphthalen-1-yl)-piperazine], the affinity, expressed as Ki, was 0.4 nM.

`COc1cccc2c1CCCC2CN1CCN(C2CCCCC2)CC1` (centres undefined) [1-Cyclohexyl-4-(5-methoxy-1,2,3,4-tetrahydro-naphthalen-1-ylmethyl)-piperazine] showed a Ki of 0.31 nM.

`c1ccc2c(CCCCCN3CCN(C4CCCCC4)CC3)cccc2c1` [1-Cyclohexyl-4-(5-naphthalen-1-yl-pentyl)-piperazine] had a Ki of 2.4 nM.

As for `COc1cccc2c1CCCC2CCN1CCN(C2CCCCC2)CC1` (centres undefined) [1-Cyclohexyl-4-[2-(5-methoxy-1,2,3,4-tetrahydro-naphthalen-1-yl)-ethyl]-piperazine], the Ki was 1.57 nM. Against the preceding molecule, the Ki is about 1.5-fold lower.

`c1ccc2c(c1)CCCC2CCCN1CCN(C2CCCCC2)CC1` (centres undefined) [1-Cyclohexyl-4-[3-(1,2,3,4-tetrahydro-naphthalen-1-yl)-propyl]-piperazine]: the Ki turned out to be 0.61 nM.

Consider `COc1ccc2c(c1)CCCC2CCCN1CCN(C2CCCCC2)CC1` (centres undefined) [1-Cyclohexyl-4-[3-(6-methoxy-1,2,3,4-tetrahydro-naphthalen-1-yl)-propyl]-piperazine], for which the inhibition constant (Ki) is 0.36 nM. This Ki lies about 1.7-fold lower than the previous one.

With `COc1ccc2c(c1)C(CCCN1CCN(C3CCCCC3)CC1)CCC2` (centres undefined) [1-Cyclohexyl-4-[3-(7-methoxy-1,2,3,4-tetrahydro-naphthalen-1-yl)-propyl]-piperazine], the affinity corresponds to a Ki of 9.04 nM.

Turning to `c1ccc2c(c1)CCCC2CCCCCN1CCN(C2CCCCC2)CC1` (centres undefined) [1-Cyclohexyl-4-[5-(1,2,3,4-tetrahydro-naphthalen-1-yl)-pentyl]-piperazine], the Ki was determined as 1.45 nM. Compared with the last molecule, the Ki is about 6.2-fold lower.

Molecule `COc1cccc2c1CCCC2CCCCCN1CCN(C2CCCCC2)CC1` (centres undefined) [1-Cyclohexyl-4-[5-(5-methoxy-1,2,3,4-tetrahydro-naphthalen-1-yl)-pentyl]-piperazine] showed a Ki of 1.52 nM.

For `COc1cccc2c1CCCC2CCCCCCN1CCN(C2CCCCC2)CC1` (centres undefined) [1-Cyclohexyl-4-[6-(5-methoxy-1,2,3,4-tetrahydro-naphthalen-1-yl)-hexyl]-piperazine], the Ki is 3.07 nM.

`Oc1ccc2c(c1)CCCC2CCCN1CCN(C2CCCCC2)CC1` (centres undefined) [5-[3-(4-Cyclohexyl-piperazin-1-yl)-propyl]-5,6,7,8-tetrahydro-naphthalen-2-ol] showed a Ki of 0.69 nM.

Molecule `c1ccc(CCN2CCCCC2)cc1` [N-phenethylpiperidine] displayed a Ki of 309 nM. This Ki lies about 450-fold higher than the previous one.

Usually Ki stands for the equilibrium dissociation constant of an inhibitor or competing ligand from its target.
